Read-outs that look alike come from different tables or passages of the source.
Assays:
[1] = test system: Porphyromonas gingivalis 381; assay: Antimicrobial screening by colorimetric WST-1 assay against P. gingivalis; format: cell-based; conditions: P. gingivalis 381, FIG. 2, read-out: growth inhibition
Experimental: (§1) The following bacterial strains were used in these studies: Porphyromonas gingivalis 381, Actinomyces naeslundii ATCC 49340, Streptococcus sanguinis ATCC 10556, Veillonella parvula ATCC 10790, Aggregatibacter actinomycetemcomitans JP2, and Fusobacterium nucleatum ATCC 25586. All bacterial strains were initially grown on blood agar plates (BBL, Becton Dickinson, Sparks, Md., USA) from a frozen stock and incubated in appropriate aerobic (for S. sanguinis) or anaerobic (for P. gingivalis, A. naeslundii, V. parvula, A. actinomycetemcomitans, and F. nucleatum) conditions at 37° C. for 24 h or 3 days, respectively. Then, a liquid culture was started for each strain in 3 mL of Brain Hearth infusion (BHI) broth alone or supplemented with 5 μg/mL of hemin and 1 μg/mL of menadione in the case of P. gingivalis. Overnight cultures were inoculated in fresh broth and allowed to reach logarithmic growth for 3-4 h, time at which antimicrobial activity of different treatments was evaluated.
Initial screening for testing the antimicrobial effect of zafirlukast derivatives (4a, 4b, 11a, 11b, 12a, 21a, 21b, 22a, 22b, 23a, and 23b) was performed using the colorimetric water-soluble tetrazolium-1 (WST-1) assay, which serves as a surrogate marker for cell proliferation and viability. Bacterial strains (10^6/well) grown logarithmically in broth (90 μL) using 96-wells plates, were exposed to different treatments for 2 h and then 15 μL of WST-1 reagent (Roche, Manheim, Germany) were added to each well. Plates were incubated for 2 h under appropriate culture conditions and then absorbance was measured at 450 nm, with a reference wavelength of 600 nm, using SpectraMax M2 plate reader (Molecular Devices, Sunnyvale, Calif., USA). The percentage of inhibitory effect (i.e., % growth inhibition) was calculated using the optical densities (ODs) of bacterial metabolic activity, under different experimental conditions according to the following formula: 100×[OD (control)−OD (experimental)/OD (control)]. For P. gingivalis, control cultures were treated only with medium and experimental cultures treated with DMSO (vehicle for zafirlukast and its derivatives) and 1 μg/mL of the antibiotic tetracycline. When tested against A. naeslundii, A. actinomycetemcomitans, S. sanguinis, V. parvula, and F. nucleatum control cultures were treated only with medium and experimental cultures were treated with DMSO (vehicle for zafirlukast and its derivatives), antibiotic penicillin/streptomycin −1× (100 U/mL of penicillin and 100 μg/mL of streptomycin) for Gram-positives and 1 μg/mL of tetracycline for Gram-negative anaerobic bacteria.

[2] = test system: OKF6 oral epithelial cells (OKF6/hTERT); assay: cells; format: cell-based; conditions: 24 h; for IC50: Homo sapiens, OKF6; for Dead (%) / Percentage of OKF6 cells alive / Alive (%): human
Experimental: Cytotoxic effect of zafirlukast derivatives in oral epithelial cells. The immortalized oral keratinocyte cell line OKF6/hTERT (OKF6) was used for viability assays in response to zafirlukast derivatives 22b, 23a, and 23b as previously reported. 3, ^4 Cells were cultured in keratinocyte-serum free medium (SFM) supplemented with bovine pituitary extract (25 μg/mL) and recombinant epidermal growth factor (0.2 ng/mL) (Ker-SFM). Cells were maintained at 37° C. in a humidified incubator with 5% CO2.
[…] Cells were then harvested by trypsinization, washed with DMEM medium supplemented with 5% fetal bovine serum at 1100 rpm and resuspended in fresh Ker-SFM. Equal volumes of cell suspension and trypan blue were mixed and 10 μL evaluated in the automated cell counter (Countess II FL) (Life Technologies, Singapure) to determine percentage of alive and death cells. These experiments were performed in two independent experiments by duplicate. […] The IC50 values were calculated by using the Quest Graph™ IC50 calculator (ATT Bioquest, Inc, https://www.aatbio.com/tools/ic50-calculator).

[3] = test system: OKF6 oral epithelial cells (OKF6/hTERT); assay: Cell viability of oral epithelial cells (apoptosis and necrosis) by flow cytometry, FITC-Annexin V / propidium iodide; format: cell-based, human; conditions: 24 h
Experimental: Cytotoxic effect of zafirlukast derivatives in oral epithelial cells. The immortalized oral keratinocyte cell line OKF6/hTERT (OKF6) was used for viability assays in response to zafirlukast derivatives 22b, 23a, and 23b as previously reported. 3, ^4 Cells were cultured in keratinocyte-serum free medium (SFM) supplemented with bovine pituitary extract (25 μg/mL) and recombinant epidermal growth factor (0.2 ng/mL) (Ker-SFM). Cells were maintained at 37° C. in a humidified incubator with 5% CO2. Cytotoxic effects of zafirlukast derivatives were confirmed by flow cytometry analysis (FACS). After different treatments, attached OKF6 cells were harvested by trypsinization and mixed with cells that were previously rescued from supernatants. Cells were washed with PBS at 1100 rpm for 5 min and further labeled with 5 μL of FITC-Annexin V and 5 μL of propidium iodide (BD Pharmingen, San Jose, Calif.) for 15 min at room temperature. Labeled cells were analyzed by FACS, with at least 10,000 events read at wavelengths averaging 488 nm for excitation and 530 nm for emission in a flow cytometer FACSCalibur (Becton Dickinson, San Jose, Calif.).

[4] = test system: Porphyromonas gingivalis 381; assay: Bactericidal effect on P. gingivalis by colony forming units (CFU) assay; format: cell-based; conditions: 24 h exposure, 7 days incubation, FIG. 4; for bacteriostatic or bactericidal: 100 μM, CFU
Experimental: as §1
P. gingivalis (10^6/well) grown in appropriate medium and anaerobic conditions was exposed to zafirlukast derivatives dissolved in DMSO for 24 h and further 50 μL of bacterial culture dilutions (1:400) were spread onto blood agar plates. Numbers of CFUs were obtained after 7 days of incubation in appropriate anaerobic conditions.

[5] = 0-100 μM in triplicate, Quest Graph IC50 calculator, read-out: IC50 (OKF6 cell viability)

Structure (SMILES): COc1cc(C(=O)NS(=O)(=O)c2ccccc2)ccc1Cc1cn(C)c2ccccc12 [Compound 4a]
- inhibition at 100 µM [1]: > 60%

Structure (SMILES): COc1cc(C(=O)NS(=O)(=O)c2ccccc2C)ccc1Cc1cn(C)c2ccccc12 [Compound 4b]
- inhibition at 100 µM [1]: > 60%

Structure (SMILES): O=C(NS(=O)(=O)c1ccccc1)c1ccc(Cc2c[nH]c3ccccc23)cc1 [Compound 11a]
- inhibition at 10 µM [1]: ~40%

Structure (SMILES): Cc1ccccc1S(=O)(=O)NC(=O)c1ccc(Cc2c[nH]c3ccccc23)cc1 [Compound 11b]
- inhibition at 10 µM [1]: ~90%

Structure (SMILES): Cn1cc(Cc2ccc(C(=O)NS(=O)(=O)c3ccccc3)cc2)c2ccccc21 [Compound 12a]
- inhibition at 10 µM [1]: 90 to 100%

Structure (SMILES): COc1ccc(Cc2c[nH]c3ccccc23)cc1C(=O)NS(=O)(=O)c1ccccc1 [Compound 21a]
- inhibition at 10 µM [1]: ~40%

Structure (SMILES): COc1ccc(Cc2c[nH]c3ccccc23)cc1C(=O)NS(=O)(=O)c1ccccc1C [Compound 21b]
- inhibition at 10 µM [1]: ~80%

Structure (SMILES): COc1ccc(Cc2cn(C)c3ccccc23)cc1C(=O)NS(=O)(=O)c1ccccc1C [Compound 22b]
- inhibition at 1 µM [1]: 15 to 40%
- inhibition at 10 µM [1]: 90 to 100%
- IC50 [2, 5]: 16 µM
- Dead (%) ([2]; 1 μM): 8.5 ± 1.7%
- Percentage of OKF6 cells alive ([2]; 1 μM): 69.3 ± 9.6%
- Percentage of OKF6 cells alive ([2]; 2.5 μM): 41.0 ± 1.0%
- Percentage of OKF6 cells alive ([2]; 5 μM): 66.0 ± 5.6%
- Alive (%) ([2]; 10 μM): 40.8 ± 16.6%
- Dead (%) ([2]; 10 μM): 59.3 ± 16.6%
- Percentage of OKF6 cells alive ([2]; 10 μM): 38.3 ± 4.9%
- Percentage of OKF6 cells alive ([2]; 15 μM): 41.0 ± 17.3%
- Percentage of OKF6 cells alive ([2]; 20 μM): 22.7 ± 11.7%
- Percentage of OKF6 cells alive ([2]; 25 μM): 47.0 ± 20.0%
- Percentage of OKF6 cells alive ([2]; 50 μM): 33.0 ± 15.1%
- Percentage of OKF6 cells alive ([2]; 100 μM): 12.3 ± 11.0%
- Apoptosis (%) ([3]; human, 1 μM): 23.7 ± 16.6%
- Necrosis (%) ([3]; human, 1 μM): 2.16 ± 1.62%
- Viable ([3]; human, 1 μM): 74.1 ± 18.1%
- Apoptosis (%) ([3]; human, 10 μM): 29.6 ± 19.1%
- Necrosis (%) ([3]; human, 10 μM): 1.37 ± 0.39%
- Viable ([3]; human, 10 μM): 69.1 ± 18.9%

Structure (SMILES): COc1ccc(Cc2cn(C)c3ccc([N+](=O)[O-])cc23)cc1C(=O)NS(=O)(=O)c1ccccc1 [Compound 23a]
- inhibition at 1 µM [1]: 15 to 40%
- inhibition at 10 µM [1]: 90 to 100%
- bacteriostatic or bactericidal [4]: bactericidal
- inhibition at 1 µM ([4]; Porphyromonas gingivalis, 381, 1 μM, read-out: growth inhibition (CFU)): ~60%
- inhibition at 10 µM ([4]; Porphyromonas gingivalis, 381, 10 μM, read-out: growth inhibition (CFU)): 100%
- IC50 [2, 5]: 54 µM
- Dead (%) ([2]; 1 μM): 20.5 ± 16.4%
- Percentage of OKF6 cells alive ([2]; 1 μM): 68.0 ± 5.0%
- Percentage of OKF6 cells alive ([2]; 2.5 μM): 70.7 ± 10.3%
- Percentage of OKF6 cells alive ([2]; 5 μM): 55.3 ± 8.1%
- Alive (%) ([2]; 10 μM): 73.8 ± 4.1%
- Dead (%) ([2]; 10 μM): 26.3 ± 4.1%
- Percentage of OKF6 cells alive ([2]; 10 μM): 49.0 ± 16.1%
- Percentage of OKF6 cells alive ([2]; 15 μM): 50.3 ± 9.5%
- Percentage of OKF6 cells alive ([2]; 20 μM): 48.0 ± 6.1%
- Percentage of OKF6 cells alive ([2]; 25 μM): 54.0 ± 7.8%
- Percentage of OKF6 cells alive ([2]; 50 μM): 45.3 ± 13.1%
- Percentage of OKF6 cells alive ([2]; 100 μM): 15.7 ± 7.1%
- Apoptosis (%) ([3]; human, 1 μM): 38.5 ± 27.5%
- Necrosis (%) ([3]; human, 1 μM): 0.69 ± 0.46%
- Viable ([3]; human, 1 μM): 60.9 ± 27.4%
- Apoptosis (%) ([3]; human, 10 μM): 44.2 ± 26.9%
- Necrosis (%) ([3]; human, 10 μM): 2.81 ± 2.31%
- Viable ([3]; human, 10 μM): 53.2 ± 29.0%

Structure (SMILES): COc1ccc(Cc2cn(C)c3ccc([N+](=O)[O-])cc23)cc1C(=O)NS(=O)(=O)c1ccccc1C [Compound 23b]
- inhibition at 1 µM [1]: 15 to 40%
- inhibition at 10 µM [1]: 90 to 100%
- bacteriostatic or bactericidal [4]: bactericidal
- IC50 [2, 5]: > 100 µM
- IC50 ([2]; estimated beyond the highest concentration tested (100 μM), read-out: IC50 (OKF6 cell viability), estimated): ~230 µM
- Dead (%) ([2]; 1 μM): 17.3 ± 9.5%
- Percentage of OKF6 cells alive ([2]; 1 μM): 83.7 ± 9.1%
- Percentage of OKF6 cells alive ([2]; 2.5 μM): 87.7 ± 3.8%
- Percentage of OKF6 cells alive ([2]; 5 μM): 87.0 ± 2.6%
- Alive (%) ([2]; 10 μM): 48.3 ± 17.5%
- Dead (%) ([2]; 10 μM): 51.8 ± 17.5%
- Percentage of OKF6 cells alive ([2]; 10 μM): 83.0 ± 5.3%
- Percentage of OKF6 cells alive ([2]; 15 μM): 79.0 ± 5.3%
- Percentage of OKF6 cells alive ([2]; 20 μM): 75.3 ± 3.8%
- Percentage of OKF6 cells alive ([2]; 25 μM): 77.0 ± 2.6%
- Percentage of OKF6 cells alive ([2]; 50 μM): 69.0 ± 7.5%
- Percentage of OKF6 cells alive ([2]; 100 μM): 58.7 ± 4.2%
- Apoptosis (%) ([3]; human, 1 μM): 24.8 ± 13.9%
- Necrosis (%) ([3]; human, 1 μM): 1.08 ± 0.17%
- Viable ([3]; human, 1 μM): 74.4 ± 13.8%
- Apoptosis (%) ([3]; human, 10 μM): 35.8 ± 21.3%
- Necrosis (%) ([3]; human, 10 μM): 2.23 ± 1.18%
- Viable ([3]; human, 10 μM): 61.7 ± 22.2%

Structure (SMILES): COc1cc(C(=O)NS(=O)(=O)c2ccccc2C)ccc1Cc1cn(C)c2ccc(NC(=O)OC3CCCC3)cc12 [Zafirlukast, zafirlukast, reference compound]
- Alive (%) ([2]; 25 μM): 17.3 ± 5.2%
- Dead (%) ([2]; 25 μM): 82.8 ± 5.2%
- Apoptosis (%) ([3]; 25 μM, FACS (Table 3, FIG. 7)): 90.8 ± 2.5%
- Necrosis (%) ([3]; 25 μM, FACS (Table 3, FIG. 7)): 0.65 ± 0.58%
- Viable ([3]; 25 μM, FACS (Table 3, FIG. 7)): 8.53 ± 3.08%

— patent US11535592B2, “Antimicrobial compounds, compositions, and method” (University of Kentucky Research Foundation, priority 2019, dated 2022)
